Assay results published in US7541379B2, “Di(amido-substituted)heteroarene compounds as osteoblastogenesis agents” (The University of Hong Kong, priority 2005, dated 2009).
“Also recorded” adds a separate entry of the source.

What was measured:
ALP = ALP enzyme activity assay (PNPP hydrolysis) in MC3T3-E1 (clone 4) cells; format: cell-based
Procedure: Cell culture. […]
(§1) ALP assay. ALP activity was measured as p-nitrophenol produced from the hydrolysis of p-nitrophenyl phosphate (PNPP). […] The reaction was stopped by the addition of NaOH (final concentration, 0.5 M) and the absorbance was measured at 410 nm. Enzyme activity was normalized to the protein content determined using Protein Assay Kit (Bio-Rad). […]
as §1, with “MC3T3-E1 (clone 4) cells were cultured for 4, 10, and 14 days with the presence of VCM supplemented with different concentrations (range from 0.01 to 1 μg/mL) of di(amido-substituted)heteroarene compounds. […]” for “ALP assay.”, “absorbance” for “absorbance was”

ALP mRNA = ALP mRNA expression by real-time quantitative RT-PCR in MC3T3-E1 (clone 4) cells; format: cell-based; details: 4 days, osteogenic medium
Procedure: (§2) Cell culture. MC3T3-E1 (clone 4) cells ([…], Manassas, Va., U.S.A.) were maintained in complete growth medium, i.e., alpha-MEM supplemented with 100 U/mL penicillin, 100 μg/mL streptomycin, and 10% heat-inactivated fetal bovine serum (JRH Biosciences, Lenexa, Kans., U.S.A. Ascorbic acid (AsA) and β-glycerophosphate (β-GP) were purchased from Sigma-Aldrich Co. (St. Louis, […]., U.S.A.). For the screening of osteoblastogenesis-inducing compounds, cells were plated in 24-well plates in complete growth medium at 5×10^4 cells/cm^2 and after overnight incubation, potential osteoblastogenesis modulating agents were added at 3 different concentrations, each with 10 fold difference. […]
(§3) Real-time quantitative reverse transcription (RT) PCR. […] ALP and osterix mRNA expression was determined by RT followed by real-time TaqMan PCR analysis. […] All PCR reactions were performed in triplicate and data obtained were analyzed using the comparative CT method (Applied Biosystems) with ALP/osterix signals normalized to 18S signal for each sample.
MC3T3-E1 (clone 4) cells were cultured for 4 days, and total RNA was extracted. […] Expression level of osterix expression in MC3T3-E1 (clone 4) cells was determined using Real-Time TaqMan polymerase chain reaction (PCR). […]

MC3T3-E1 (clone 4) cells [1] = assay: Bone nodule formation and mineralization (Alizarin red stain); format: cell-based; details: 0.01 to 1 μg/mL, 26 days, osteogenic conditions
Procedure: Cells were washed twice with ice-cold PBS and then fixed in ice-cold fixative (10% formalin in PBS) for 15 min. After washed with deionized water, fixed cells were stained with 1% alizarin S solution, pH 4.2 for 15 min and then were washed thoroughly with deionized water. Mineralized matrix was then detected.

osterix mRNA = assay: Osterix mRNA expression by real-time quantitative RT-PCR in MC3T3-E1 (clone 4) cells; format: cell-based; details: 1 μg/mL (high concentrations), 4 days, osteogenic medium
Procedure: as §2, §3
MC3T3-E1 (clone 4) cells were cultured for 4 days, and total RNA was extracted. […] Expression level of osterix expression in MC3T3-E1 (clone 4) cells was determined using Real-Time TaqMan PCR. […]

CCD-19L cells = assay: Cytotoxicity by MTT assay on CCD-19L cells (vs vehicle control); format: cell-based, human; details: 72 h
Description: As used herein, the term “CCD-19L cells” described herein refers to normal human lung fibroblast cell line.
(§4) Cytotoxicity assay. Vero cells, an African green monkey cell line were purchased from American Type Culture Collection (ATCC) and Cell Proliferation Kit I MTT (3-[4,5-dimethylth-iazol-2-yl]-2,5-diphenyltetrazolium bromide) assay was purchased from Roche. Normal human lung fibroblast cell line (CCD-19Lu) was obtained commercially from ATCC. CCD-19Lu cells were maintained in a minimum essential medium with Earle's balanced salts (MEM). The media were supplemented with L-glutamine (2 mM), fetal bovine serum (10%), penicillin (100 U/mL) and streptomycin (100 μg/mL). Cultures were incubated at 37° C. in a 5% CO2/95% air humidified atmosphere. Cell culture flasks and 96-well microtitre plates were purchased from Nalge Nunc Int. Culture medium, other medium constituents and phosphate buffered saline (PBS) were from Gibco BRL.
Assays on cytotoxic effects were conducted in 96-well flat-bottomed microtitre plates. […] The formation of formazan was measured with a microtitre plate reader at 550 nm and the percentages of cell survival were determined. The cytotoxicity was evaluated based on the percentage cell survival in a dose dependent manner relative to the negative control (FIG. 8).

[2] = Cytotoxicity by standard MTT assay on Vero cells; format: cell-based, African green monkey; details: African green monkey, MTT assay, read-out: TC50 (the source's name)
Procedure: as §4
(§5) The cytotoxicity of selected compounds was determined by MTT according to manufacturer's (Roche) instructions. The experiment (cell viability using MTT as an indicator) was carried out in triplicates. The TC50 (on Vero cells, an African green monkey cell line) is ca. 50 μM, it is concluded that these compounds may be useful for osteoblastogenesis development.

[3] = system: African green monkey Vero cells; assay: Cytotoxicity by standard MTT assay on Vero cells; format: cell-based
Procedure: as §4, §5

MC3T3-E1 (clone 4) cells [4] = assay: MTT-based cell proliferation assay; details: 0.01 to 1 μg/mL, 2 days, osteogenic medium
Procedure: (§6) Cell proliferation assay. Cell proliferation studies were performed as previously described using MTT-based (GE Healthcare, Piscataway, N.J., USA) cell proliferation assays (Cheung et a/, FEBS Lett (2006), 580, 121). After treatment with potential osteoblastogenesis modulating agents for 2 days, MTT was added at a final concentration of 0.5 mg/ml for 3 h, cells were solubilized with isopropanol containing 0.1% sodium dodecyl sulfate and 0.04 N hydrochloric acid, and the absorbance measured at 570 nm. All experiments were repeated three times.
as §6, with “Cell” for “Cell proliferation assay. Cell”, “MTT” for “MTT-based”, “USA)” for “USA) cell proliferation”, “al,” for “a/,”, “the candidate compounds (concentrations 0.01 to 1 μg/mL)” for “potential osteoblastogenesis modulating agents”

For `Cc1ccc(S(=O)(=O)Nc2cn(C)cc2NS(=O)(=O)c2ccc(C)cc2)cc1` [compound 1], the “effect on ALP enzyme activity” value (ALP; 0.01 to 1 μg/mL, osteogenic medium, 4, 10 and 14 days) was “significantly enhanced ALP enzyme activity in a dose-dependent manner”, the “ALP activity up-regulated compared to the control” value (ALP; 14 days of treatment, 0.1 μg/mL, osteogenic medium) was 2 fold and the “ALP mRNA expression up-regulated” value (ALP mRNA; 0.1 μg/mL) was 16%. For the same compound, the “effect on ALP mRNA expression” value (ALP mRNA; 0.1 and 1 μg/mL) was “enhanced ALP mRNA expression”, the “effect on mineralization of bone nodules” value (MC3T3-E1 (clone 4) cells [1]) was “potentiated mineralization of bone nodules” and the “effect on osterix mRNA expression” value (osterix mRNA) was “effectively up-regulated mRNA expression of osterix; also recorded: enhanced osterix mRNA expression”. The “cytotoxicity on CCD-19L cells” value (CCD-19L cells) was “low cytotoxicity”, the CC50 [2] was 57 µM and the CC50 ([3]; MTT assay, read-out: TC50 (the source's name)) was ≤ 57 µM. For the same compound, the “cytotoxicity on Vero cells” value ([3]; standard MTT assay) was “low cytotoxicity” and the “effect on cell proliferation (MTT)” value (MC3T3-E1 (clone 4) cells [4]) was “did not alter”.
